By inhibition is commonly meant the relative decrease from the control value, in per cent. The term half-life denotes how long it takes for the measured level to halve. Broadly, the CLint scaled is the rate of metabolic loss divided by the concentration.

The values below come from patent publication US20260138948A1, “N-SUBSTITUTED INDOLES AS 5-HYDROXYTRYPTAMINE (5-HT) SEROTONIN RECEPTOR AGONISTS AND ANTAGONISTS” (Terran Biosciences Inc., priority 2021, published 2026).

The subject of one data set is 5HT2A sensor. As to conditions: general statement on known hallucinogens and non-hallucinogenic congeners; cited from earlier work.
Data set [1] deals with T1, 5-HT2A receptor (Homo sapiens, UniProt P28223).
T1 construct: host or cells: unnamed cell lines
Description: Calcium mobilization assay, agonist format, 5-HT2A. Type of data set: cell-based. As to conditions: % activity relative to control ligand, read-out: 5-HT2A agonist efficacy @10 µM. As for the experimental part:
(§1) Protocol—in vitro testing at select 5-hydroxytryptamine (5-HT; serotonin) receptors was conducted.
(§2) • 1. Cell lines were expanded from freezer stocks according to standard procedures. • 2. Cells were seeded in a total volume of 20 μL into black-walled, clear-bottom, Poly-D-lysine coated 384-well microplates and incubated at 37° C. for the appropriate time prior to testing.
(§3) • 1. Assays were performed in 1× Dye Loading Buffer consisting of 1× Dye, 1× Additive A and • 2.5 mM Probenecid in HBSS/20 mM Hepes. Probenicid was prepared fresh. • 2. Cells were loaded with dye prior to testing. Media was aspirated from cells and replaced with 20 μL Dye Loading Buffer. • 3. Cells were incubated for 30-60 minutes at 37° C.
(§4) • 1. For agonist determination, cells were incubated with sample to induce response. • 2. After dye loading, cells were removed from the incubator and 10 μL HBSS/20 mM Hepes was added. 3× vehicle was included in the buffer when performing agonist dose curves to define the EC80 for subsequent antagonist assays. Cells were incubated for 30 minutes at room temperature in the dark to equilibrate plate temperature. • 3. Intermediate dilution of sample stocks was performed to generate 4× sample in assay buffer. • 4. Compound agonist activity was measured on a FLIPR Tetra (MDS). Calcium mobilization was monitored for 2 minutes and 10 μL 4× sample in HBSS/20 mM Hepes was added to the cells 5 seconds into the assay.
(§5) • 1. Compound activity was analyzed using CBIS data analysis suite (ChemInnovation, CA). • 2. For agonist mode assays, percentage activity is calculated using the following formula: % Activity=100%×(mean RFU of test sample−mean RFU of vehicle control)/(mean MAX RFU control ligand −mean RFU of vehicle control). • 3. For positive allosteric mode assays, percentage modulation was calculated using the following formula: % Modulation=100%×((mean RFU of test sample−mean RFU of EC20 control)/(mean RFU of MAX control ligand −mean RFU of EC20 control)). • 4. For antagonist and negative allosteric modulation mode assays, percentage inhibition is calculated using the following formula: % Inhibition=100%×(1−(mean RFU of test sample−mean RFU of vehicle control)/(mean RFU of EC80 control−mean RFU of vehicle control)).

A further data set has as its target T2, 5-HT2B receptor (Homo sapiens, UniProt P41595).
T2 construct: host or cells: unnamed cell lines
Description: Calcium mobilization assay, agonist format, 5-HT2B. As to conditions: % activity relative to control ligand, read-out: 5-HT2B agonist efficacy @5 µM. Type of data set: cell-based. As for the experimental part: as §1, §2, §3, §4, §5

A further data set has as its target T3, 5-HT2C receptor (Homo sapiens, UniProt P28335).
T3 construct: host or cells: unnamed cell lines
T3 sequence (P28335 33-458): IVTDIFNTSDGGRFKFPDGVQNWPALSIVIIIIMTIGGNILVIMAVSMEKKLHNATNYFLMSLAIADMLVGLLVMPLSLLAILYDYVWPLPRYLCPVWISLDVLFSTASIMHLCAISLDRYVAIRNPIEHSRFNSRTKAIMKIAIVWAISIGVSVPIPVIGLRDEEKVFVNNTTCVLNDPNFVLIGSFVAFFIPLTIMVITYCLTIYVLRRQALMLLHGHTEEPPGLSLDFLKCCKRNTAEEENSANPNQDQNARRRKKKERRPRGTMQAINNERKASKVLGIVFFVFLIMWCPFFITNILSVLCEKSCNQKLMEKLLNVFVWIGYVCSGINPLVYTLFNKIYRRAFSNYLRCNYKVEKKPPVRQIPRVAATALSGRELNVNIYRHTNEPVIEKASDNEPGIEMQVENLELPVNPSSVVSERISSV
Description: Calcium mobilization assay, antagonist format, 5-HT2C. Type of data set: cell-based. As to conditions: @10 µM; agonist challenge at EC80. As for the experimental part: as §1, §2, §3
(§6) • 1. For antagonist determination, cells were pre-incubated with sample followed by agonist challenge at the EC80 concentration. • 2. Intermediate dilution of sample stocks was performed to generate 3× sample in assay buffer. • 3. After dye loading, cells were removed from the incubator and 10 μL 3× sample was added. Cells were incubated for 30 minutes at room temperature in the dark to equilibrate plate temperature. Vehicle concentration was 1%. • 4. Compound antagonist activity was measured on a FLIPR Tetra (MDS). Calcium mobilization was monitored for 2 minutes and 10 μL EC80 agonist in HBSS/20 mM Hepes was added to the cells 5 seconds into the assay.
as §5
[…] For research comparative purposes, a literature compound—(R)-1-(5-methoxy-1H-indol-1-yl)-N,N-dimethylpropan-2-amine (AAZ-A-154) (Cell 2021, 184, 2779-2792.e18)—was included in the screening assays. Additionally, 5-hydroxytryptamine/serotonin (5-HT) was included in the screening assay as a positive control agonist, and SB242084 was used in the screening assay as a literature 5-HT2C antagonist positive control. […] Compounds 2, 3 and 93 each achieved greater than 75% antagonism of the 5-HT2C receptor, with compounds 3 and 93 achieving approximately 98% and 97% antagonism, respectively.

Data set [2] deals with T1, 5-HT2A receptor. Nature of the data set: Calcium mobilization assay, antagonist format, 5-HT2A. As to conditions: @100 nM; agonist challenge at EC80. Type of data set: cell-based. How it is done:
as §1, §2, §3, §6, §5
Compounds were evaluated as 5-HT2A antagonists at 100 nM (one hundred nanomolar), or may be evaluated at a higher concentration. For research comparative purposes, a literature compound—(R)-1-(5-methoxy-1H-indol-1-yl)-N,N-dimethylpropan-2-amine (AAZ-A-154) (Cell 2021, 184, 2779-2792.e18)—was included in the screening assays. Additionally, 5-hydroxytryptamine/serotonin (5-HT) was included in the screening assay as a positive control agonist, and Altanserin HCl was included as a 5-HT2A antagonist positive control.
For orientation: Calcium assays in cells follow changes in intracellular calcium, usually with a dye or a luminescent sensor.

A short description of data set [3]: Metabolic stability in human liver microsomes. Type of data set: in vitro ADME. Conditions: for difference in half-life and intrinsic clearance compared with reference compound (R)-1-(5-methoxy-1H-indol-1-yl)-N,N-dimethylpropan-2-amine / microsomal CLint at 1 μM: human liver microsomes; for difference in half-life and intrinsic clearance compared with reference compound (R)-1-(5-methoxy-1H-indol-1-yl)-N,N-dimethylpropan-2-amine: comment on Table 2; for half-life at 1 μM / microsomal CLint at 1 μM / CLint scaled at 1 μM: liver microsomes (pooled); for half-life at 1 μM: human liver microsomes 0.5 mg/mL, test compound 1.0 μM, 37° C., NADPH; for microsomal CLint at 1 μM: intrinsic clearance = 0.693/T1/2/mg microsome protein per mL, read-out: CLint(mic); for CLint scaled at 1 μM: human, scaled from CLint(mic) with 45 mg microsomal protein/g liver and 20 g liver/kg. As for the experimental part: The test compound at 1.0 μM in singlet, or positive controls including Testosterone (CYP3A4 substrate), Propafenone (CYP2D6 substrate) or Diclofenac (CYP2C9 substrate) was incubated with the liver microsomes (Corning, Xenotech, or other credible vendor, pooled from multiple donors) at 0.5 mg/mL, respectively. The mixture was warmed up at 37° C. for 10 minutes and the reactions were initiated by the addition of a NADPH regenerating system (˜1.0 mM). The test compound incubated with the liver microsomes at 37° C. without the NADPH regenerating system served as the negative control reaction.
The reaction samples were removed at multiple time points (such as 0, 5, 15, 30, 45 and 60 minutes) and the sample without NADPH (NCF) was removed at 60 minutes. All the samples were immediately mixed with cold acetonitrile containing internal standard (IS) to stop the reaction.
Samples were analyzed by LC/MS/MS and the disappearance of test compound were assessed base on peak area ratios of analyte/IS (no standard curve). The microsomal intrinsic clearance and T1/2 values were calculated using the following equation: […]
The microsomal intrinsic clearance and T1/2 values were calculated using the following equation: […]
In these experiments the comparator compound was a suitable reference standard. In one embodiment the comparator compound was (R)-1-(5-methoxy-1H-indol-1-yl)-N,N-dimethylpropan-2-amine.
In general terms: Liver microsomes are vesicles of endoplasmic reticulum, rich in cytochrome P450 enzymes.

T2 sequence (P41595 whole entry): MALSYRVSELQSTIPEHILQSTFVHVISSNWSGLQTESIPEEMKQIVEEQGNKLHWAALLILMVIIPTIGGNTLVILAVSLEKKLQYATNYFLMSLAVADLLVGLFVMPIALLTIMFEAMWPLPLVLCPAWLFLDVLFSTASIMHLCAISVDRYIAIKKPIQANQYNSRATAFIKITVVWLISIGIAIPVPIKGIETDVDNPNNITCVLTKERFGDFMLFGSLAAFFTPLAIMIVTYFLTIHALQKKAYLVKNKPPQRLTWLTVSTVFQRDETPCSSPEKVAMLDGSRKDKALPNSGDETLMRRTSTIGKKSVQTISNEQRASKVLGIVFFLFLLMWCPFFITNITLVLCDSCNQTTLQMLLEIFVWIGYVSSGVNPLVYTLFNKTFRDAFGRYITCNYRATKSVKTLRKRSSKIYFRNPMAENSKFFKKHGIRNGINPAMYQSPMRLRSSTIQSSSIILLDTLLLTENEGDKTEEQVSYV
T1 sequence (P28223 whole entry): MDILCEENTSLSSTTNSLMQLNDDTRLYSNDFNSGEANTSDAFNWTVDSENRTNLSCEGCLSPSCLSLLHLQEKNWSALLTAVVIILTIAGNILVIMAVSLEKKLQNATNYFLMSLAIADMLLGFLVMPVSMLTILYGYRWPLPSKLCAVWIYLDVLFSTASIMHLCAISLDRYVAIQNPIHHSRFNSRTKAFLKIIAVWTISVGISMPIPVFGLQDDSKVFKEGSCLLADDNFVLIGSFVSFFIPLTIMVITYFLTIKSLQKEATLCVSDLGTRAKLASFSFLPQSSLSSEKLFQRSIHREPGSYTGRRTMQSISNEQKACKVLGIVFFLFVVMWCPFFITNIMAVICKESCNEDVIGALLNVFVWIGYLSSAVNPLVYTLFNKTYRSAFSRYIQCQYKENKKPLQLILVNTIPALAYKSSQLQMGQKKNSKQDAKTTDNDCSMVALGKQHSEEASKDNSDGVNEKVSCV

Consider `CN(C)CCc1c[nH]c2ccccc12` [DMT, N,N-dimethyltryptamine], for which, in the data set on 5HT2A sensor, the “activation of the 5HT2A sensor assay in agonist mode” value (from here on “activation of the 5HT2A sensor assay”) is “activate the 5HT2A sensor assay in agonist mode”.
For `COc1ccc2c(CCN(C)C)c[nH]c2c1` [Compound 6-MeO-DMT], the “activation of the 5HT2A sensor assay” value with 5HT2A sensor is reported as “do not activate the 5HT2A sensor assay in agonist mode”.
With `COc1cc(CC(C)N)c(OC)cc1I` (stereo not shown) [DOI, 2,5-dimethoxy-4-iodoamphetamine], the “activation of the 5HT2A sensor assay” value with 5HT2A sensor is recorded as “activate the 5HT2A sensor assay in agonist mode”.
For `O=C(c1ccc(F)cc1)C1CCN(CCn2c(=O)[nH]c3ccccc3c2=O)CC1` [Ketanserin, ketanserin], the “activation of the 5HT2A sensor assay” value in the data set with 5HT2A sensor was “do not activate the 5HT2A sensor assay in agonist mode”.
As to `COc1ccn2c(CC(C)N(C)C)cnc2c1` (racemic) [Compound 91, (R/S)-1-(7-methoxyimidazo[1,2-a]pyridin-3-yl)-N,N-dimethylpropan-2-amine], on 5-HT2A receptor [1], the activation at 10 µM came to 0.6%. In addition, on 5-HT2B receptor, the activation at 5 µM was 1%. Besides, the inhibition at 10 µM at 5-HT2C receptor is 6.1%. Also, at 5-HT2A receptor [2], the inhibition at 0.1 µM is -3.3%.
For `C[C@H](Cn1ccc2cc(S(F)(F)(F)(F)F)ccc21)N(C)C` [Compound 2, (2R)-N,N-dimethyl-1-[5-(pentafluoro-λ^6-sulfanyl)indol-l-yl]propan-2-amine], in that order: 4.4%, 6.4%, 76.4% and -0.8%.
With `COc1ccn2c(CC(C)N(C)C)ncc2c1` (racemic) [Compound 92, (R/S)-1-(7-methoxyimidazo[1,5-a]pyridin-3-yl)-N,N-dimethylpropan-2-amine], the activation at 10 µM at 5-HT2A receptor [1] is 0.3%. Further, at 5-HT2B receptor, the activation at 5 µM stood at 2%. Moreover, the inhibition at 10 µM at 5-HT2C receptor is 7.2%. Moreover, the inhibition at 0.1 µM on 5-HT2A receptor [2] came out at 1.6%.
In the case of `[2H]C([2H])([2H])Oc1ccc2c(ccn2C([2H])([2H])[C@]([2H])(N(C)C)C([2H])([2H])[2H])c1` [Compound 151, (2R)-1,1,1,2,3,3-hexadeuterio-N,N-dimethyl-3-[5-(trideuteriomethoxy)indol-1-yl]propan-2-amine], in data set [3], the “difference in half-life and intrinsic clearance compared with reference compound (R)-1-(5-methoxy-1H-indol-1-yl)-N,N-dimethylpropan-2-amine” value (“difference” below) is “most significant difference in half-life and intrinsic clearance ratio”; the half-life at 1 μM is 2 h; the microsomal CLint at 1 μM was found to be 11.5 µL/min/mg; the CLint scaled at 1 μM is 10.4 mL/min/kg.
As for `[2H]C([2H])([2H])N(C([2H])([2H])[2H])[C@]([2H])(C([2H])([2H])[2H])C([2H])([2H])n1ccc2cc(OC)ccc21` [Compound 6, (2R)-1,1,1,2,3,3-hexadeuterio-3-(5-methoxyindol-1-yl)-N,N-bis(trideuteriomethyl)propan-2-amine], in data set [3], the “difference” value was “significant and beneficial differences in half-life and intrinsic clearance”; the half-life at 1 μM came to 1.82 h; the microsomal CLint at 1 μM stood at 12.7 µL/min/mg; the intrinsic clearance (CLint scaled) at 1 μM was determined as 11.4 mL/min/kg.
On to `CCN(CC)C(=O)[C@@H]1C=C2c3cccc4[nH]cc(c34)C[C@H]2N(C)C1` [LSD, lysergic acid diethylamide], for which the “activation of the 5HT2A sensor assay” value in the data set with 5HT2A sensor is “activate the 5HT2A sensor assay in agonist mode”.
`CN[C@H](C)Cc1ccc2c(c1)OCO2` [L-MDMA]: in the data set on 5HT2A sensor, the “activation of the 5HT2A sensor assay” value is listed as “do not activate the 5HT2A sensor assay in agonist mode”.
With `C[C@H](Cn1ccc2cc(S(=O)(=O)C3CC3)ccc21)N(C)C` [Compound 4, (2R)-1-(5-cyclopropylsulfonylindol-1-yl)-N,N-dimethyl-propan-2-amine], on 5-HT2A receptor [1], the activation at 10 µM is -1.5%. Besides, at 5-HT2B receptor, the activation at 5 µM was -0.6%. Also, at 5-HT2C receptor, the inhibition at 10 µM worked out at 6.2%. For the same compound, the inhibition at 0.1 µM on 5-HT2A receptor [2] is -9.1%.
In the same order, the values of `C[C@H](Cn1ccc2cc(OC3CC3)ccc21)N(C)C` [Compound 1, (R)-1-(5-cyclopropoxy-1H-indol-1-yl)-N,N-dimethylpropan-2-amine] are -1.4%, -0.7%, 20.7% and -13.2%.
For the compound `CCN(CC)C(=O)[C@@H]1C=C2c3cccc4[nH]c(Br)c(c34)C[C@H]2N(C)C1` [BOL148], the “activation of the 5HT2A sensor assay” value with 5HT2A sensor is “do not activate the 5HT2A sensor assay in agonist mode”.
`CCN(CC)CCc1c[nH]c2cc(F)ccc12` [Compound 6-F-DET]: in the data set on 5HT2A sensor, the “activation of the 5HT2A sensor assay” value is “do not activate the 5HT2A sensor assay in agonist mode”.
With `[2H]C([2H])([2H])Oc1ccc2c(ccn2C([2H])([2H])[C@]([2H])(N(C([2H])([2H])[2H])C([2H])([2H])[2H])C([2H])([2H])[2H])c1` [Compound 152, (2R)-1,1,1,2,3,3-hexadeuterio-3-[5-(trideuteriomethoxy)indol-1-yl]-N,N-bis(trideuteriomethyl)propan-2-amine], in data set [3], the “difference” value was “significant and beneficial differences in half-life and intrinsic clearance”; the half-life at 1 μM was 1.91 h; the microsomal CLint at 1 μM turned out to be 12.4 µL/min/mg; the CLint scaled at 1 μM amounted to 11.1 mL/min/kg.
